The source of these data is patent US8685966B2, “GRP94 inhibitors” (University of Kansas, priority 2011, dated 2014).

Entries after “also recorded” stand apart in the source; their conditions may differ. Read-outs that look alike come from different tables or passages of the source.

One data set relates to HeLa cells. Kind of data set: HeLa cell survival (XTT assay), GRP94-sufficient or -deficient cells. The following applies: Homo sapiens, 48 hrs, regardless of presence of GRP94, read-out: IC50 for HeLa cell viability. The data set is classed as cell-based. How it is done:
GRP94 and BiP were detected by the anti-KDEL antibody. *, an unknown KDEL-containing band. […] Cell survival was measured by XTT assay (n=4).
Similar results were obtained with other cell lines (e.g. C2C12 in FIG. 6).
Background: Tetrazolium assays rely on reduction of a dye to a coloured formazan, in cell work by metabolically active cells.

In a further data set the test system is BiP expression. Kind of data set: Induction of BiP expression (immunoblot). The data set is classed as cell-based. Background: In western blotting, separated proteins are transferred to a membrane and probed.
Data set [1] has as its system cytosolic Hsp90 (Hsp90α and Hsp90β). The experiment in a line: Western blot of Hsp90α/β client proteins (Raf, Akt) in HEK293 cell lysates. The data set is classed as cell-based, human. The following applies: for concentration at which Hsp90α/β client proteins (Raf, Akt) are degraded/affected: HEK293, Western blot. How it is done: As previously mentioned, it has been shown that Grp94 is not essential for tissue culture cell viability.^28 In contrast, loss of functional Hsp90α or Hsp90β results in cell death. […]. […] To support these findings, western blot analyses of Hsp90α/β client proteins were performed from HEK293 cell lysates. […].
Briefly, HEK293 cells were plated in 6-well plates and treated with various concentrations of drug, GDA in DMSO (1% DMSO final concentration), or vehicle (DMSO) for 24 h. Cells were harvested in cold PBS and lysed in mammalian protein extraction reagent (MPER, Pierce) and protease inhibitors (Roche) on ice for 1 h. Lysates were clarified at 14,000 g for 10 min at 4° C. Protein concentrations were determined with the Pierce BCA assay kit per the manufacturer's instructions. Equal amounts of protein (10 μg) were electrophoresed under reducing conditions, transferred to a PVDF membrane, and immunoblotted with the corresponding specific antibodies. Membranes were incubated with an appropriate horseradish peroxidase-labeled secondary anti-body, developed with chemiluminescent substrate, and visualized.

The subject of data set [2] is SKBR3 (Her2 overexpressing, ER—) breast cancer cells. The experiment in a line: Anti-proliferative activity, SKBR3. Format: cell-based, human. The following applies: said to be mimicked by the client degradation value; read-out: observed IC50 in SkBR3. How it is done: (§1) As previously mentioned, it has been shown that Grp94 is not essential for tissue culture cell viability.^28 In contrast, loss of functional Hsp90α or Hsp90β results in cell death. Therefore, we investigated the anti-proliferative effects of compounds 1-5 against two breast cancer cells, MCF7 (ER+) and SKBR3 (Her2 overexpressing, ER—), and against the non-transformed HEK293 cells. […] To support these findings, western blot analyses of Hsp90α/β client proteins were performed from HEK293 cell lysates.

The target of data set [3] is yHsp82 (yeast homolog of Hsp90β) (Saccharomyces cerevisiae, UniProt P02829). Kind of data set: Binding affinity by fluorescent quenching, yHsp82. The following applies: read-out: Kd value for yHsp82 (yeast homolog of Hsp90β), FIG. 1B.
yHsp82 (yeast homolog of Hsp90β), sequence (P02829 whole entry): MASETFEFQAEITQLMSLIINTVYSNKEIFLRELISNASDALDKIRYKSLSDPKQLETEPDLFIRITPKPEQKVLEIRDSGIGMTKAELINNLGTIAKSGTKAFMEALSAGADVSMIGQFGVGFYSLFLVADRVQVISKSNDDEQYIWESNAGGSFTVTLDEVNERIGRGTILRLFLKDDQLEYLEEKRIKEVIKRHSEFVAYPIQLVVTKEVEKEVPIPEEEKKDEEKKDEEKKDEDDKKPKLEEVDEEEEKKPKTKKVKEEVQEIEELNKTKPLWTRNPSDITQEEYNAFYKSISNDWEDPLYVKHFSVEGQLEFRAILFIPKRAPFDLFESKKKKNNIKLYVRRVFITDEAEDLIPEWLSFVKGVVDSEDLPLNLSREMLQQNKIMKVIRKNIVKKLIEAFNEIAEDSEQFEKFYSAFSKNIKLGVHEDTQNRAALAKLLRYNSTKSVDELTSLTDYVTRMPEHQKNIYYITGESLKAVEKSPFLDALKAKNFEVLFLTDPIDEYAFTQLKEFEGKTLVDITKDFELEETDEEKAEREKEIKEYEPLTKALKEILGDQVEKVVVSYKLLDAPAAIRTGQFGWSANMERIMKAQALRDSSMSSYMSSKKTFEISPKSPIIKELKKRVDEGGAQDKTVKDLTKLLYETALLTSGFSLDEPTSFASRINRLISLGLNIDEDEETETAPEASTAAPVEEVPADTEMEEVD
For data set [4], the target named is T1, Grp94 (Homo sapiens, UniProt P14625).
T1 construct: endogenous in cells; host or cells: HEK293 (transfected only with pcDNA6B-Toll-Flag, the read-out client)
T1 sequence (P14625 22-803): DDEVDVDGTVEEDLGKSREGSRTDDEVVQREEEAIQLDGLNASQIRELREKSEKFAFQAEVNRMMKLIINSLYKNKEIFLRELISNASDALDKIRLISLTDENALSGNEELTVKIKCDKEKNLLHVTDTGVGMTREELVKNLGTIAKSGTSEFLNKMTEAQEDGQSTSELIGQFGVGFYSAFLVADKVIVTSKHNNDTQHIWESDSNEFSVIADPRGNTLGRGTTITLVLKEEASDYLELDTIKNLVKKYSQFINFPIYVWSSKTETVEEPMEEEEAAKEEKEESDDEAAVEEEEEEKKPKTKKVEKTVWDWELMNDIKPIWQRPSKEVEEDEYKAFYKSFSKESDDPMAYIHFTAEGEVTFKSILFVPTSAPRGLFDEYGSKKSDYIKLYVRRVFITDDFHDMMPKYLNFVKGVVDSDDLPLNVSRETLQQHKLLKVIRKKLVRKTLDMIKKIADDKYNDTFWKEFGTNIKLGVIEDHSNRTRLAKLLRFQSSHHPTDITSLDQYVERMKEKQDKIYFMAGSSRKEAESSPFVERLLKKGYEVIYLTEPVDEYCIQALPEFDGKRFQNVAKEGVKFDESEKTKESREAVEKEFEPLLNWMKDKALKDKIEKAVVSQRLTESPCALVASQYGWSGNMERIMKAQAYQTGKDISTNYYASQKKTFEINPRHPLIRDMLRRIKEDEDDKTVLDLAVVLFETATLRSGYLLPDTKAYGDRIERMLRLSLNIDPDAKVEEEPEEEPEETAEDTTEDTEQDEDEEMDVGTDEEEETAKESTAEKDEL
Kind of data set: Toll trafficking assay in Toll-transfected HEK293 cells. The data set is classed as cell-based. The following applies: Toll presentation inhibition versus Western blot of Hsp90-dependent client proteins.

Data set [5] concerns the target Grp94 (Canis lupus familiaris, UniProt P41148). Kind of data set: Binding affinity by fluorescent quenching, Grp94.
Data set [6] relates to MCF7 (ER+) breast cancer cells. The experiment in a line: Anti-proliferative activity, MCF7. The following applies: said to be mimicked by the client degradation value; read-out: observed IC50 in MCF7. The data set is classed as cell-based, human. Here is the method:
as §1

Data set [7] deals with IGF-II secretion. The following applies: serum-starved C2C12 myoblast cells; cited from earlier work.
For data set [8], the system named is National Cancer Institute 60-cell panel (NCI-60). Kind of data set: NCI 60-cell panel cytotoxicity profile. The data set is classed as cell-based. The source says: This should not dampen excitement for selective Grp94 inhibitors, as numerous studies have shown 3-dimensional tumor response to be drastically different from cell culture responses. Requisite studies are underway to understand the effect of Grp94 inhibition on 3-dimensional tumor models.

In a further data set the test system is C2C12 cells. Kind of data set: C2C12 cell viability (XTT assay). The following applies: same treatment as IGF-II assay.
The next data set relates to cytosolic Hsp90. Kind of data set: Akt stability in the BiP induction experiment (immunoblot). Format: cell-based. The following applies: same concentrations as BiP induction. Here is the method: NIH-3T3 cells were treated with 25 μM of 17-AAG (AAG), 10 μM of RDC or 0-50 μM of 2. After 18 hrs cells were harvested for SDS-PAGE and analyzed by immunoblotting. Grp94, BiP and PDIA6 were detected with the monoclonal anti-KDEL antibody, AKT by rabbit anti-serum. 14-3-3 served as loading control. Numbers below BiP, Grp94, and AKT bands are the relative expression levels, determined by densitometry.
Inhibition of Hsp90 is also known to induce expression of Hsp70 and this response is useful as a diagnostic tool (FIG. 11).^61-62 A parallel response exists when Grp94 expression is ablated by RNAi, or when its activity is inhibited by RDC or 17-AAG: a transcriptional response is initiated that leads to upregulation of expression of BiP, the ER member of the Hsp70 family (Eletto et al., submitted). We therefore assessed the ability of 2 to cause BiP up-regulation, in comparison to pan-Hsp90 inhibitors. […] However, at these concentrations, the compound also destabilized Akt, a hallmark of inhibition of cytosolic Hsp90 (FIG. 12).

In data set [9] the test system is IGF-II secretion. Kind of data set: IGF-II secretion by serum-starved C2C12 cells (ELISA). Format: cell-based, mouse. The following applies: 10 μM. Here is the method:
IGF-II is a second well-defined Grp94-dependent client protein and active Grp94 is required for the secretion of IGF-11 (Ostrovsky et al., 2009).
For IGF-II ELISA, plates were coated with anti-IGF-II (MAb 792, R&D Systems) and incubated with the test cell media. The bound IGF-II was detected with a biotinylated anti-IGF-II antibody (BAF792, R&D Systems) and developed with streptavidin-HRP (R&D Systems) according to the manufacturer's recommended procedure. Optical density units were converted to concentrations of the growth factor with a standard curve generated with recombinant IGF-II (792-MG) (R&D Systems). Data were acquired in duplicate on a microtiter-plate reader (Dynatech Laboratories, Chantilly, Va.) at 450 nm.

Data set [10] deals with Drosophila larvae (w1118). The experiment in a line: Drosophila larval growth on supplemented fly food. The data set is classed as in vivo. From the text:
In the absence of zygotic expression of Gp93, however, larvae display a pronounced growth defect, commensurate with disrupted gut epithelial morphology, decreased gut nutrient uptake, and marked aberrations in copper cell structure and function. As a consequence, loss of Gp93 expression is larval lethal in Drosophila. […]. […] In parallel experiments, larval gut tissue was obtained from each of the feeding conditions and gut epithelial morphology evaluated by fluorescence microscopy. […] Pharmacokinetic studies of compound absorption and metabolism may provide addition insights into this partial phenotypic behavior.
Compound effects on Drosophila larval growth were examined as described in 26. […]

Where [11] appears, read: read-out: Kd value for Grp94, fluorescent quenching, FIG. 1B.
[12] abbreviates: read-out: kd for binding to the Hsp90 isoform GRP94.

Grp94 (Canis lupus familiaris, UniProt P41148), sequence (P41148 22-804): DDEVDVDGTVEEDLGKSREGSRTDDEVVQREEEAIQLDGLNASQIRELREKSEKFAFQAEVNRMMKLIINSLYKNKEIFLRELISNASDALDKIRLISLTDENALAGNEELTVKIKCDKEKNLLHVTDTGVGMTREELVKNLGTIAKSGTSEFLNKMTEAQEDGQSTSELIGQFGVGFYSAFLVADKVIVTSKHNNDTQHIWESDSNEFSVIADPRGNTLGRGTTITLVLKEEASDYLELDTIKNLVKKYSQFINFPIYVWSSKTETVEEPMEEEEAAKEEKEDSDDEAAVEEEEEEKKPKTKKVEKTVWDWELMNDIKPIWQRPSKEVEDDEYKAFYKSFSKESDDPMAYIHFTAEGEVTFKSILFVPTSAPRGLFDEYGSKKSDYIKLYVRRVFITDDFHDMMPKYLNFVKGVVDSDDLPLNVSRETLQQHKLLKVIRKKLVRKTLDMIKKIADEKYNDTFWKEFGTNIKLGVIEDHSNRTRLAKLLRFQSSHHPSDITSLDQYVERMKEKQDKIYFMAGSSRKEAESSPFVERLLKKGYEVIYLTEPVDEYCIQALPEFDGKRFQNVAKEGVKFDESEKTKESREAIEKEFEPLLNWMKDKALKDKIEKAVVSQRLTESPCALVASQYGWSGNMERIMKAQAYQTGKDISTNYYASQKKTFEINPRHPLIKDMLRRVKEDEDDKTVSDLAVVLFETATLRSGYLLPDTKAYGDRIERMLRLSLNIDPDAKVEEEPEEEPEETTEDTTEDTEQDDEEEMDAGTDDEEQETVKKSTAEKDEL

As for `C[C@@H]1C[C@H]2O[C@@H]2/C=C\C=C\C(=O)Cc2c(Cl)c(O)cc(O)c2C(=O)O1` [RDC, radicicol], the IC50 (as a rule, the concentration that inhibits the measured activity by half) with HeLa cells amounted to 8000 nM. Further, in the data set with BiP expression (10 μM), the BiP up-regulation entry was “did cause BiP up-regulation”.

Take cis-radamide [cRDA]: the “concentration at which Hsp90α/β client proteins (Raf, Akt) are degraded/affected” value in data set [1] was around 1 µM. Besides, the IC50 in data set [2] and in [6] was around 1000 nM each time. Besides, the figures for the Kd (in data set [3]; at Grp94 [5] (setting [11]); at Grp94 [5] (setting [12])) were 240 ± 120 nM, 110 ± 20 nM and 110 nM, respectively. In addition, the “selectivity for GRP94 versus cytoplasmic Hsp90 α/β” value on Grp94 [4] is “minimal selectivity”.

In the case of `C=CCNC1=C2C[C@@H](C)C[C@H](OC)[C@H](O)[C@@H](C)/C=C(\C)[C@H](OC(N)=O)[C@@H](OC)/C=C\C=C(/C)C(=O)NC(=CC1=O)C2=O` [Compound 17-AAG, 17-(allylamino)-17-demethoxygeldanamycin], the “secretion of IGF-II (previously demonstrated)” value with IGF-II secretion [7] is recorded as “prevent the secretion of IGF-II”. Further, the BiP up-regulation result with BiP expression (25 μM, data not shown) was “did cause BiP up-regulation”.

For the compound `COC(=O)c1c(O)cc(O)c(Cl)c1CCc1nccn1Cc1ccccc1` [Compound 2, Methyl 2-(2-(1-benzyl-1H-imidazol-2-yl)ethyl)-3-chloro-4,6-dihydroxybenzoate], the HSP70 induction result in data set [1] (HEK293, 100 μM) was “induction of HSP70”. Further, the “concentration at which Hsp90α/β client proteins (Raf, Akt) are degraded/affected” value in data set [1] came to 100 µM. For the same compound, the “cytotoxicity across all 60 transformed cell lines” value in data set [8] is on record as “negligible cytotoxicity”. Moreover, the “effect on cell viability” value in the data set with C2C12 cells is reported as “little effect on cell viability”. The BiP up-regulation entry in the data set with BiP expression (0-75 μM, C2C12 cells) was “did not lead to up-regulation of BiP”. In the data set on BiP expression (resembles RDC), the “concentration inducing BiP expression” value was “above 200 μM”. Moreover, the “concentration at which Akt is destabilized” value in the data set with cytosolic Hsp90 is reported as “above 200 μM”. Further, in the data set on IGF-II secretion [9], the “reduction of IGF-II secretion” value is listed as “Approximately 60%”. The Drosophila larval growth result in data set [10] (250 μg/ml to 1 mg/ml in fly food, 96 hours) is recorded as “dramatic growth phenotype; also recorded: stunted the growth of Drosophila larvae in a dose-dependent manner”. The “larval gut copper cell structure” value in data set [10] (fluorescence microscopy of gut tissue, data not shown) is listed as “No grossly discernible effects on copper cell structure”.

As to `COC(=O)c1c(O)cc(O)c(Cl)c1CCC(=O)NC1=CC(=O)C(OC)=CC1=O` [Radamide], the Kd – broadly, the equilibrium constant for the complex coming apart – in [3] came out at 870 ± 140 nM; at Grp94 [5] (setting [11]), 520 ± 130 nM; at Grp94 [5] (setting [12]) it was 254 nM. The “fold higher binding affinity for full-length Grp94 than yHsp82” value on Grp94 [5] (full-length Grp94 vs yHsp82) is “approximately 2 fold”.
